Tested on: human prostate cancer cell line PC3
Test: Proliferation of PC3 cells after 4 days exposure (BrdU incorporation and WST-1 assays)
Format: cell-based
Settings: PC-3, 96 h, component alone, PC3 cells exposed for 4 days
Protocol: Stock solutions were prepared as follows: Genistein and silymarin were dissolved in ethanol. Daidzein and equol were dissolved in dimethyl sulfoxide (DMSO). Lycopene was dissolved in 0.02M HCl
The PC3 cell line (American Type Culture Collection, Mannassas, USA), a highly resistant prostate cancer cell line originating from a metastasis lesion of bone, was maintained as monolayer cultures in RPMI medium (Gibco, Life technologies BV, Breda, Netherlands) supplemented with 5% FCS (Gibco). The cells were grown mycoplasm free in plastic tissue culture flasks (Falcon, Micronic, Lelystad, Netherlands). Cultures were kept in a 5% CO2 humidified atmosphere, at a temperature of 37° C. Media were replaced every 2 or 3 days, and cells were subcultured at weekly intervals using a 0.05% trypsin and 0.01% EDTA.
The PC3 cells were seeded into flat-bottomed 96-well tissue culture treated plates (Falcon, Micronic, Lelystad, Netherlands) at a density of 16000 cells per well. After 24 h incubation, vehicle controls, test components or combinations of the test components were added to the medium (20 μl added to 200 μl medium in well). The components were tested in combination to determine additional or synergistic effects. PC3 cells were exposed for 4 days.
Cell proliferation was quantified by measuring the incorporation of 5-bromo-2′-deoxyuridine (BrdU) during DNA synthesis and by cleavage of tetrazolium salt (WST-1) in viable cells by mitochondrial dehydrogenases. The calorimetric BrdU (immunoassay) and colorimetric WST-1 assay were performed in accordance with the manufacturer's instructions (Roche Diagnostics Mannheim, Germany). Briefly, BrdU-assay: After the exposure period, the cells were treated with BrdU-labeling solution for 3 hours. After labeling, cells were washed with PBS, fixed for 30 minutes and washed again with PBS. After 90 minutes incubation with the anti-BrdU-POD working solution, the cells were washed 3 times. After addition of the substrate, the reaction was stopped with H2SO4. The absorbance was measured at 450 nm with a reference wavelength at 650 nm. WST-1 assay: After the exposure period, the cells were washed with PBS and treated with WST-1 diluted in medium (1:10). After 3 hours incubation, the absorbance was measured at 450 nm with a reference at 595 nm.

Oc1ccc([C@H]2COc3cc(O)ccc3C2)cc1 [equol]
inhibition at 26 µg/mL (26 μg/ml, read-out: inhibition of proliferation of human prostate cancer cell line PC3 (mean±s.e.)): 30.1 ± 4.4%

CC(C)=CCC/C(C)=C/C=C/C(C)=C/C=C/C(C)=C/C=C/C=C(C)/C=C/C=C(C)/C=C/C=C(\C)CCC=C(C)C [lycopene]
inhibition at 53 µg/mL (53 μg/ml, stated as not significant, read-out: inhibition of growth of the PC3 cells): 7.3 ± 2.7%

O=c1c(-c2ccc(O)cc2)coc2cc(O)cc(O)c12 [Genistein, genistein]
inhibition at 27 µg/mL (27 μg/ml, read-out: inhibition of proliferation of human prostate cancer cell line PC3 (mean±s.e.)): 20.2 ± 4.6%

O=c1c(-c2ccc(O)cc2)coc2cc(O)ccc12 [daidzein]
inhibition at 25 µg/mL (25 μg/ml, stated as not significant, read-out: inhibition of growth of the PC3 cells): 10 ± 6%

From patent publication US20040259815A1, “Anti-proliferative composition” (priority 2001, published 2004)
